Source: article PMC9558053, “Development of a novel high-throughput screen for the identification of new inhibitors of protein S-acylation” (The Journal of Biological Chemistry, 2022)

Target: T1, human zDHHC15 (Homo sapiens, UniProt Q96MV8)
T1 construct: expressed in transfected cells; host or cells: HEK293T
T1 sequence (Q96MV8 1-337): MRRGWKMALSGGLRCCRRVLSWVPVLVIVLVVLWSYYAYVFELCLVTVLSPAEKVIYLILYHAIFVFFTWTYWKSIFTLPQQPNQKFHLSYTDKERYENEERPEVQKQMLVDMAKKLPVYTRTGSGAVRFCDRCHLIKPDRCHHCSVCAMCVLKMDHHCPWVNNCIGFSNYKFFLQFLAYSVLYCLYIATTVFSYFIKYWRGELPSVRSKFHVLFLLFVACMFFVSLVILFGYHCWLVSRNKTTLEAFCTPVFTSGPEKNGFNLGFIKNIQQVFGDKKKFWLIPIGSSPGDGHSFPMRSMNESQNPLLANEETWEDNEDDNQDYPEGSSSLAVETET
Test: PSD95-mCHERRY S-acylation in HEK293T cells co-expressing zDHHC15
Assay type: cell-based
Details: 25 μM
Excerpt: PSD95 (postsynaptic density protein 95) is a major S-acylated protein that has a critical role in the maturation of excitatory neurons and in synaptic plasticity ([46], [47]). PSD95 can be S-acylated by zDHHC2, zDHHC3, zDHHC7, and zDHHC15 ([6]). […] We therefore tested the effects of TTZ-1 and TTZ-2 on the S-acylation of PSD95 mediated by zDHHC2, zDHHC3, zDHHC7, and zDHHC15. […] In contrast, zDHHC3 and zDHHC7 activities toward PSD95 were unaffected by TTZ-1 and TTZ-2, mirroring the data obtained with GFP-SNAP25 as a substrate.
Figure 9 Activity of TTZ-1 and TTZ-2 against PSD95 S-acylation mediated by human zDHHC2, zDHHC3, zDHHC7, and zDHHC15 expressed in mammalian cells. HEK293T cells were transfected with a plasmid encoding PSD95-mCHERRY together with either a control plasmid pEF-BOS-HA (pEF) or a plasmid encoding either HA-tagged human zDHHC2 (zD2), zDHHC3 (zD3), zDHHC7 (zD7), or zDHHC15 (zD15) for 24 h. Cells were then preincubated for 4 h with TTZ-1 or TTZ-2 (25 μM final) or DMSO control before metabolic labeling with 100 μM C16:0-azide for 4 h. Cells were lysed, and proteins having incorporated C16:0-azide were labeled by click chemistry with an alkyne-IR800 dye. […] The data were quantified, and the graphs below each set of membranes show mean ± SEM of normalized S-acylation of PSD95-mCHERRY (click signal/RFP signal). […]

Row | SMILES | PSD95-mCHERRY S-acylation by zDHHC15
1 | O=C(Nc1cccc2c1OC(c1nnn[nH]1)CN2)c1ccc(OCCCCc2ccccc2)cc1 (centres unmarked) [TTZ-2, N-(2-(1H-Tetrazol-5-yl)-3,4-dihydro-2H-benzo[b][1,4]oxazin-8-yl)-4-(4-phenylbutoxy)benzamide] | significantly inhibited
2 | CCCCCCCOc1ccc(C(=O)Nc2cccc3c2OC(c2nnn[nH]2)CN3)cc1 (centres unmarked) [TTZ-1, N-(2-(1H-Tetrazol-5-yl)-3,4-dihydro-2H-benzo[b][1,4]oxazin-8-yl)-4-(heptyloxy)benzamide] | significantly inhibited
